Where a name gives a salt, the structure may show the parent alone. Read-outs that look alike come from different tables or passages of the source.
System: 22RV1 cells
Test: Experiment 2 on inhibiting 22RV1 cell proliferation (7 days, CellTiter-Glo)
Type: cell-based
Settings: 1% css-FBS phenol red-free medium, incubated with compound 7 days, read-out: IC50 values on proliferation inhibition of 22RV1 cells
Outline: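 Survival measured by CellTiter-Glo after 7 days of compound exposure, normalised to DMSO controls, with IC50 fitted by dose-response. Cells (22RV1, 2000/well) were seeded overnight in 1% css-FBS phenol red-free medium before dosing.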

CC(C)(c1ccc(OCc2ccnc(N3CCC(CN4CCC5(CC4)CCN(c4ccc6c(c4)C(=O)N(C4CCC(=O)NC4=O)C6=O)CC5)C3)n2)cc1)c1cc(Cl)cc(C#N)c1 (centres unmarked) [Compound 86 trifluoroacetate, 3-chloro-5-(2-(4-((2-(3-((9-(2-(2,6-dioxopiperidin-3-yl)-1,3-dioxoisoindolin-5-yl)-3,9-diazaspiro[5.5]undecan-3-yl)methyl)pyrrolidin-1-yl)pyrimidin-4-yl)methoxy)phenyl)propan-2-yl)benzonitrile]
IC50 (Homo sapiens, 22Rv1, 168 h): 278 nM

CC(C)(c1ccc(OCc2ccnc(N3CCN(CC4CCN(C5CCN(c6cccc7c6C(=O)N(C6CCC(=O)NC6=O)C7=O)CC5)CC4)CC3)n2)cc1)c1cc(Cl)c(OCCCl)c(C#N)c1 (centres unmarked) [Compound 12, 3-chloro-2-(2-chloroethoxy)-5-(2-(4-((2-(4-((1′-(2-(2,6-dioxopiperidin-3-yl)-1,3-dioxoisoindolin-4-yl)-[1,4′-bipiperidin]-4-yl)methyl)piperazin-1-yl)pyrimidin-4-yl)methoxy)phenyl)propan-2-yl)benzonitrile]
IC50: 804 nM

Cc1ncsc1-c1ccc([C@H](C)NC(=O)[C@@H]2C[C@@H](O)CN2C(=O)[C@@H](NC(=O)CN2CCC(CN3CCC(N4CCN(c5nccc(COc6ccc(C(C)(C)c7cc(Cl)cc(C#N)c7)cc6)n5)CC4)CC3)CC2)C(C)(C)C)cc1 [Compound 50 trifluoroacetate, (2S,4R)-1-((S)-2-(2-(4-((4-(4-(4-((4-(2-(3-chloro-5-cyanophenyl)propan-2-yl)phenoxy)methyl)pyrimidin-2-yl)piperazin-1-yl)piperidin-1-yl)methyl)piperidin-1-yl)acetamido)-3,3-dimethylbutanoyl)-4-hydroxy-N-((S)-1-(4-(4-methylthiazol-5-yl)phenyl)ethyl)pyrrolidine-2-carboxamide]
IC50 (Homo sapiens, 22Rv1, 168 h): 398 nM

Cn1c(=O)n(C2CCC(=O)NC2=O)c2ccc(C3CCN(CC4CCN(c5nccc(COc6ccc(C(C)(C)c7cc(Cl)cc(C#N)c7)cc6)n5)CC4)CC3)cc21 (centres unmarked) [Compound 105 trifluoroacetate, 3-chloro-5-(2-(4-((2-(4-((4-(1-(2,6-dioxopiperidin-3-yl)-3-methyl-2-oxo-2,3-dihydro-1H-benzo[d]imidazol-5-yl)piperidin-1-yl)methyl)piperidin-1-yl)pyrimidin-4-yl)methoxy)phenyl)propan-2-yl)benzonitrile]
IC50 (Homo sapiens, 22Rv1, 168 h): 575 nM

CC(C)(c1ccc(OCc2ccnc(N3CCN(C4CN(CC5CCN(c6ccc7c(c6)C(=O)N(C6CCC(=O)NC6=O)C7=O)CC5)C4)CC3)n2)cc1)c1cc(Cl)cc(C#N)c1 (centres unmarked) [Compound 56 trifluoroacetate, 3-chloro-5-(2-(4-((2-(4-(1-((1-(2-(2,6-dioxopiperidin-3-yl)-1,3-dioxoisoindolin-5-yl)piperidin-4-yl)methyl)azetidin-3-yl)piperazin-1-yl)pyrimidin-4-yl)methoxy)phenyl)propan-2-yl)benzonitrile]
IC50 (Homo sapiens, 22Rv1, 168 h): 716 nM

CCOc1c(Cl)cc(C(C)(C)c2ccc(OCc3ccnc(N4CC5(CCC(N6CCC(c7ccc8c(c7)n(C)c(=O)n8C7CCC(=O)NC7=O)CC6)CC5)C4)n3)cc2)cc1C#N (centres unmarked) [Compound 121 trifluoroacetate, 3-chloro-5-(2-(4-((2-(7-(4-(1-(2,6-dioxopiperidin-3-yl)-3-methyl-2-oxo-2,3-dihydro-1H-benzo[d]imidazol-5-yl)piperidin-1-yl)-2-azaspiro[3.5]nonan-2-yl)pyrimidin-4-yl)methoxy)phenyl)propan-2-yl)-2-ethoxybenzonitrile]
IC50 (Homo sapiens, 22Rv1, 168 h): 842 nM

Cn1c(=O)n(C2CCC(=O)NC2=O)c2cccc(CN3CCC(N4CCC5(CCN(c6nccc(COc7ccc(C(C)(C)c8cc(Cl)cc(C#N)c8)cc7)n6)CC5)CC4)CC3)c21 (centres unmarked) [Compound 100 trifluoroacetate, 3-chloro-5-(2-(4-((2-(9-(1-((1-(2,6-dioxopiperidin-3-yl)-3-methyl-2-oxo-2,3-dihydro-1H-benzo[d]imidazol-4-yl)methyl)piperidin-4-yl)-3,9-diazaspiro[5.5]undecan-3-yl)pyrimidin-4-yl)methoxy)phenyl)propan-2-yl)benzonitrile]
IC50 (Homo sapiens, 22Rv1, 168 h): 577 nM

Cn1c(=O)n(C2CCC(=O)NC2=O)c2cccc(CN3CC(N4CCC(N5CCC6(CCN(c7nccc(COc8ccc(C(C)(C)c9cc(Cl)c(OCCCl)c(C#N)c9)cc8)n7)CC6)CC5)CC4)C3)c21 (centres unmarked) [Compound 31 trifluoroacetate, 3-chloro-2-(2-chloroethoxy)-5-(2-(4-((2-(9-(1-(1-((1-(2,6-dioxopiperidin-3-yl)-3-methyl-2-oxo-2,3-dihydro-1H-benzo[d]imidazol-4-yl)methyl)azetidin-3-yl)piperidin-4-yl)-3,9-diazaspiro[5.5]undecan-3-yl)pyrimidin-4-yl)methoxy)phenyl)propan-2-yl)benzonitrile]
IC50 (Homo sapiens, 22Rv1, 168 h): 401 nM

CC(C)(c1ccc(OCc2ccnc(N3CCN(C4CN(C5CCCN(c6ccc7c(c6)C(=O)N(C6CCC(=O)NC6=O)C7=O)C5)C4)CC3)n2)cc1)c1cc(Cl)cc(C#N)c1 (centres unmarked) [Compound 52 trifluoroacetate, 3-chloro-5-(2-(4-((2-(4-(1-(1-(2-(2,6-dioxopiperidin-3-yl)-1,3-dioxoisoindolin-5-yl)piperidin-3-yl)azetidin-3-yl)piperazin-1-yl)pyrimidin-4-yl)methoxy)phenyl)propan-2-yl)benzonitrile]
IC50 (Homo sapiens, 22Rv1, 168 h): 956 nM

Cn1c(=O)n(C2CCC(=O)NC2=O)c2cccc(C3CCN(CC4(F)CCN(C5CC6(CCN(c7nccc(COc8ccc(C(C)(C)c9cc(Cl)cc(C#N)c9)cc8)n7)CC6)C5)CC4)CC3)c21 (centres unmarked) [Compound 115 trifluoroacetate, 3-chloro-5-(2-(4-((2-(2-(4-((4-(1-(2,6-dioxopiperidin-3-yl)-3-methyl-2-oxo-2,3-dihydro-1H-benzo[d]imidazol-4-yl)piperidin-1-yl)methyl)-4-fluoropiperidin-1-yl)-7-azaspiro[3.5]nonan-7-yl)pyrimidin-4-yl)methoxy)phenyl)propan-2-yl)benzonitrile]
IC50 (Homo sapiens, 22Rv1, 168 h): 955 nM

Cn1c(=O)n(C2CCC(=O)NC2=O)c2ccc(C3CCN(CC4CCN(C5CCN(c6nccc(COc7ccc(C(C)(C)c8cc(Cl)cc(C#N)c8)cc7)n6)CC5)CC4)CC3)cc21 (centres unmarked) [Compound 91 trifluoroacetate, 3-chloro-5-(2-(4-((2-(4-((4-(1-(2,6-dioxopiperidin-3-yl)-3-methyl-2-oxo-2,3-dihydro-1H-benzo[d]imidazol-5-yl)piperidin-1-yl)methyl)-[1,4′-bipiperidin]-1′-yl)pyrimidin-4-yl)methoxy)phenyl)propan-2-yl)benzonitrile]
IC50 (Homo sapiens, 22Rv1, 168 h): 427 nM

CCOc1c(Cl)cc(C(C)(C)c2ccc(OCc3ccnc(N4CCC5(CC4)CC(N4CCC(c6ccc7c(c6)n(C)c(=O)n7C6CCC(=O)NC6=O)CC4)C5)n3)cc2)cc1C#N (centres unmarked) [Compound 107 trifluoroacetate, 3-chloro-5-(2-(4-((2-(2-(4-(1-(2,6-dioxopiperidin-3-yl)-3-methyl-2-oxo-2,3-dihydro-1H-benzo[d]imidazol-5-yl)piperidin-1-yl)-7-azaspiro[3.5]nonan-7-yl)pyrimidin-4-yl)methoxy)phenyl)propan-2-yl)-2-ethoxybenzonitrile]
IC50 (Homo sapiens, 22Rv1, 168 h): 526 nM

CC(C)(c1ccc(OCc2ccnc(N3CC4CN(CC5CN(c6ccc7c(c6)C(=O)N(C6CCC(=O)NC6=O)C7=O)C5)CC4C3)n2)cc1)c1cc(Cl)cc(C#N)c1 (centres unmarked) [Compound 73 trifluoroacetate, 3-chloro-5-(2-(4-((2-(5-((1-(2-(2,6-dioxopiperidin-3-yl)-1,3-dioxoisoindolin-5-yl)azetidin-3-yl)methyl)hexahydropyrrolo[3,4-c]pyrrol-2(1H)-yl)pyrimidin-4-yl)methoxy)phenyl)propan-2-yl)benzonitrile]
IC50 (Homo sapiens, 22Rv1, 168 h): 97 nM

CCOc1c(Cl)cc(C(C)(C)c2ccc(OCc3ccnc(N4CCC(CN(C)C5CCN(c6ccc7c(c6)n(C)c(=O)n7C6CCC(=O)NC6=O)CC5)CC4)n3)cc2)cc1C#N (centres unmarked) [Compound 102 trifluoroacetate, 3-chloro-5-(2-(4-((2-(4-(((1-(1-(2,6-dioxopiperidin-3-yl)-3-methyl-2-oxo-2,3-dihydro-1H-benzo[d]imidazol-5-yl)piperidin-4-yl)(methyl)amino)methyl)piperidin-1-yl)pyrimidin-4-yl)methoxy)phenyl)propan-2-yl)-2-ethoxybenzonitrile]
IC50 (Homo sapiens, 22Rv1, 168 h): 641 nM

CC(C)(c1ccc(OCc2ccnc(N3CCC4(CC3)CCN(C3CCN(C5CN(c6ccc7c(c6)C(=O)N(C6CCC(=O)NC6=O)C7=O)C5)CC3)CC4)n2)cc1)c1cc(Cl)c(OCCCl)c(C#N)c1 (centres unmarked) [Compound 30 trifluoroacetate, 3-chloro-2-(2-chloroethoxy)-5-(2-(4-((2-(9-(1-(1-(2-(2,6-dioxopiperidin-3-yl)-1,3-dioxoisoindolin-5-yl)azetidin-3-yl)piperidin-4-yl)-3,9-diazaspiro[5.5]undecan-3-yl)pyrimidin-4-yl)methoxy)phenyl)propan-2-yl)benzonitrile]
IC50 (Homo sapiens, 22Rv1, 168 h): 834 nM

CC(C)(c1ccc(OCc2ccnc(N3CCN(C4CC5(CCN(CC6CCN(c7ccc8c(c7)C(=O)N(C7CCC(=O)NC7=O)C8=O)CC6)CC5)C4)CC3)n2)cc1)c1cc(Cl)cc(C#N)c1 (centres unmarked) [Compound 60 trifluoroacetate, 3-chloro-5-(2-(4-((2-(4-(7-((1-(2-(2,6-dioxopiperidin-3-yl)-1,3-dioxoisoindolin-5-yl)piperidin-4-yl)methyl)-7-azaspiro[3.5]nonan-2-yl)piperazin-1-yl)pyrimidin-4-yl)methoxy)phenyl)propan-2-yl)benzonitrile]
IC50 (Homo sapiens, 22Rv1, 168 h): 866 nM

Cn1c(=O)n(C2CCC(=O)NC2=O)c2ccc(C3CCN(C4CCC5(CC4)CN(c4nccc(COc6ccc(C(C)(C)c7cc(Cl)cc(C#N)c7)cc6)n4)C5)CC3)cc21 (centres unmarked) [Compound 122 trifluoroacetate, 3-chloro-5-(2-(4-((2-(7-(4-(1-(2,6-dioxopiperidin-3-yl)-3-methyl-2-oxo-2,3-dihydro-1H-benzo[d]imidazol-5-yl)piperidin-1-yl)-2-azaspiro[3.5]nonan-2-yl)pyrimidin-4-yl)methoxy)phenyl)propan-2-yl)benzonitrile]
IC50 (Homo sapiens, 22Rv1, 168 h): 1010 nM
